Laboratory results from US7067482B2, “Cross-linked glycopeptide-cephalosporin antibiotics” (Theravance, Inc., priority 2003, dated 2006).
In brackets after ≈: the same amount, converted by molar mass.

Key:
[1] = system: MSSA 13709; assay: Minimal inhibitory concentration (MIC), broth microdilution, MSSA 13709; details: Staphylococcus aureus, read-out: MIC MSSA 13709
[2] = system: methicillin-susceptible Staphylococcus aureus (MSSA 13709) and methicillin-resistant Staphylococcus aureus (MRSA 33591); assay: In vivo efficacy studies in neutropenic mice (thigh infection); details: iv, 24 h, read-out: ED50 (dose required to produce 50% of the maximum reduction in thigh titre)
[3] = system: MRSA 33591; assay: Time-kill assay; format: cell-based, Staphylococcus aureus; details: in 24 hours; bactericidal = >=3 log decrease in bacterial cell numbers
Protocol: This time-kill assay is a method for measuring the rate of bactericidal activity of a test compound. These procedures are similar to those described in V. Lorian, “Antibiotics in Laboratory Medicine”, Fourth Edition, Williams and Wilkins (1996), pages 104–105. A rapid time-kill is desirable to quickly prevent bacterial colonization and reduce host tissue damage.
Bacterial inocula were prepared as described in Example 6 for determination of MIC. Bacteria were diluted in prewarmed media in shake flasks and incubated with shaking (200 rpm, 35° C.). At 0, 1, 4, and 24 hours samples were withdrawn from the flasks and bacteria were enumerated by plate counting. Subsequent to the initial sampling, a test compound to be assayed was added to the shake flask culture. Plate counts at these intervals previous to and following addition of the compound were expressed graphically in a time-kill curve. Bactericidal activity is defined as a greater than or equal to 3 log decrease (reduction greater than or equal to 99.9%) in bacterial cell numbers by 24 hours.
By comparison, vancomycin was bactericidal against MRSA 33591 at a concentration of 4 μg/mL in 24 hours.

[4] = system: MRSA 33591; assay: Minimal inhibitory concentration (MIC), broth microdilution, MRSA 33591; details: Staphylococcus aureus, read-out: MIC MRSA 33591

Question: Which results are given for `CN[C@H](CC(C)C)C(=O)N[C@H]1C(=O)N[C@@H](CC(N)=O)C(=O)N[C@H]2C(=O)N[C@H]3C(=O)N[C@H](C(=O)N[C@H](C(=O)O)c4cc(O)cc(O)c4-c4cc3ccc4O)[C@H](O)c3ccc(c(Cl)c3)Oc3cc2cc(c3O[C@@H]2O[C@H](CO)[C@@H](O)[C@H](O)[C@H]2O[C@H]2C[C@](C)(N)[C@H](O)[C@H](C)O2)Oc2ccc(cc2Cl)[C@H]1O` [Vancomycin, vancomycin]?
Answer: MIC [1]: 1 µg/mL (≈ 0.69 µM); ED50 [2]: 9 mg/kg; concentration at which bactericidal [3]: 4 µg/mL; MIC [4]: 2 µg/mL (≈ 1.38 µM)
